What was measured:
[1] = system: fatty acid amide hydrolase (FAAH); experiment: incubation with WT or FAAH KO brain homogenates (susceptibility to FAAH hydrolysis); type: in vitro ADME, mouse; conditions: for susceptibility to hydrolysis by FAAH: WT or FAAH KO brain homogenates
Method: Wildtype (WT) or FAAH knock out (KO) brain homogenates were incubated with either A8 or synaptamide.
Incubation of synaptamide and A8 with brain homogenates: Make 5× pH 9 assay buffer (625 mM Tris, 5 mM EDTA). Collect fresh brains of C57 mice into cold 1× pH 9 assay buffer. Homogenize entire brain (including cerebellum) in 2 mL of cold buffer using a conical Potter-Evehjem type tissue homogenizer driven by a motor. Perform incubations in washed and silanized 10 mL glass test tubes at 37° C. for 1 hour. Add 10 pmoles each of A8 and d4-synaptamide (5 uL of a 2 pmol/uL mixture of A8 and d4-synaptamide in DMSO). See Kim et al., Prostaglandins & Other Lipid Mediators, 96(1-4):114-120 (2011) for the structure of d4-synaptamide (d4-DEA). Add 500 μL of brain homogenate per incubation tube. Vortex gently. Incubate at 37° C. in a water bath, shaking at 42 rpm for 1 hour. Stop reaction by adding 1 mL chloroform, 1 mL methanol, 1 mL methanol/BHT (50 mg/L BHT) and 300 μL water. Vortex to mix, store under an inert gas at −80° C. until. Ready to extract via the method of Bligh and Dyer, Canadian J. Biochem. 37: 911-917, 1959.
Extraction procedure: Incubations are already in the 1st Bligh-Dyer ration (0.8:1:2 aqueous:CHCl3:MeOH). Work on wet ice. Add 10 pmoles of d4-anandamide which will be used as an internal standard to give relative quantification of the unhydrolyzed d4-synaptamide and A8. Add 1 mL water and 1 mL CHCl3 to each tube, purge with nitrogen, vortex vigorously 1 minute. Centrifuge 5 minutes at 4° C.; 3,000 rpm (Sorvall RTH 750 rotor) to separate phases. Extract the organic phase (bottom layer) to a clean silanized 10 mL test tube using glass Pasteur pipette. Avoid getting any aqueous phase in extract. Add 2 mL CHCl3 to the aqueous phase, purge with nitrogen and vortex 1 minute. […] Cap vials under argon and store at −80° C. until ready to analyze via HPLC-MS.
Ten pmoles each of A8 and d4-synaptamide were incubated with WT or FAAH KO brain homogenates or buffer (B, […]). Relative quantitation was performed via SRM mass spectrometry.

neural stem cells = experiment: neuronal and glial differentiation of neural stem cells (MAP2/GFAP immunofluorescence); type: cell-based, rats; conditions: 7 days, differentiating NSCs
Method: Fetal neural stem cell culture: Neural stern cells (NSCs) were cultured by the neurosphere method (Rietze R. L., Reynolds B. A. (2006) Neural stem cell isolation and characterization. Methods Enzymol. 419, 3-23, the method incorporated by reference herein) with slight modification. Forebrain cortices of rats were isolated on embryonic day 14.5 and 12.5, respectively. The cortices were mechanically disrupted into single cells by repeated pipetting in a serum-free conditioned medium (N2 medium) containing DMEM/F12 (1:1), 0.6% (wt/vol) glucose, 0.1125% (wt/vol) sodium bicarbonate, 2 mM L-glutamine, 5 mM HEPES, 100 μg/mL human apo-transferrin, 20 nM progesterone, 30 nM sodium selenite, 60 μM putrescine, and 25 μg/mL insulin. The dissociated cells were cultured in 6 cm dishes at a density of 1×10^5 cells/mL in N2 medium with 20 ng/mL bFGF and 2 μg/mL heparin in a humidified 5% CO2/95% air incubator at 37° C. Within 3-4 days, the cells grew as free-floating neurospheres that were then collected by centrifugation, mechanically dissociated by pipetting, and passaged.
Differentiation of NSCs: After the second passage, nestin- and SOX2-positive NSCs were enriched in the neurosphere with minimal presence of differentiated cells (MAP2, Tuj-1 and GFAP-positive cells). After the second passage neurospheres were mechanically dissociated and 5×10^5 cells/mL were plated onto 15 μg/mL poly-L-ornithine coated 6- or 24-well plates in N2 medium without bFGF and heparin to initiate the differentiation. The cultures were then treated with N2 medium containing A8 in the presence of 40 μM vitamin E for 1-7 days. As the vehicle control, N2 medium containing 40 μM vitamin E was used.
Immunofluorescence staining: For immunofluorescence staining, 2.5×10^5 NSCs were cultured in 0.5 mL media. […] Finally, the cells were mounted with 80% (vol/vol) glycerol, visualized under a fluorescence microscope and the image data were processed using MetaMorph software for quantitative information. The number of MAP2- and GFAP-positive cells were counted from three separate wells with three to six random fields per well. […]

Structure (SMILES): CC/C=C\C/C=C\C/C=C\C/C=C\C/C=C\C/C=C\CCC(=O)NCC(C)(C)O [Compound 1, (4Z,7Z,10Z,13Z,16Z,19Z)—N-(2-hydroxy-2-methylpropyl)docosa-4,7,10,13,16,19-hexaenamide]
- susceptibility to hydrolysis by FAAH ([1]; Example 3, FIG. 5): less susceptible to hydrolysis by FAAH than synaptamide
- susceptibility to hydrolysis by FAAH ([1]; Example 4, 10 pmoles, pH 9, 37° C., 1 hour, FIG. 6, vs d4-synaptamide): less susceptible to hydrolysis by FAAH than the deuterated synaptamide
- percent recovery of compound after incubation with brain homogenate ([1]; WT and FAAH KO brain homogenate, FIG. 5, compared with synaptamide): higher than synaptamide
- MAP2 positive cells (neural stem cells; 1 nM, control 7.0±0.8, p=0.02): 10.8±1.8%
- differentiation into GFAP positive cells (neural stem cells; 1-100 nM range): not affected
- MAP2 positive cells (maximum effect) (neural stem cells; around 10 nM, p=0.007): 17.2±4.1%

Source: US9422308B2, “Derivatives of docosahexaenoylethanolamide and uses thereof” (The United States of America, as represented by the …, priority 2012, dated 2016)
